We go through 38 molecules from patent US9776972B2, “Pyrazole derivatives as arginine methyltransferase inhibitors and uses thereof” (priority 2013, dated 2017).

human PRMT3, sequence (O60678 with tags, fused parts or gaps): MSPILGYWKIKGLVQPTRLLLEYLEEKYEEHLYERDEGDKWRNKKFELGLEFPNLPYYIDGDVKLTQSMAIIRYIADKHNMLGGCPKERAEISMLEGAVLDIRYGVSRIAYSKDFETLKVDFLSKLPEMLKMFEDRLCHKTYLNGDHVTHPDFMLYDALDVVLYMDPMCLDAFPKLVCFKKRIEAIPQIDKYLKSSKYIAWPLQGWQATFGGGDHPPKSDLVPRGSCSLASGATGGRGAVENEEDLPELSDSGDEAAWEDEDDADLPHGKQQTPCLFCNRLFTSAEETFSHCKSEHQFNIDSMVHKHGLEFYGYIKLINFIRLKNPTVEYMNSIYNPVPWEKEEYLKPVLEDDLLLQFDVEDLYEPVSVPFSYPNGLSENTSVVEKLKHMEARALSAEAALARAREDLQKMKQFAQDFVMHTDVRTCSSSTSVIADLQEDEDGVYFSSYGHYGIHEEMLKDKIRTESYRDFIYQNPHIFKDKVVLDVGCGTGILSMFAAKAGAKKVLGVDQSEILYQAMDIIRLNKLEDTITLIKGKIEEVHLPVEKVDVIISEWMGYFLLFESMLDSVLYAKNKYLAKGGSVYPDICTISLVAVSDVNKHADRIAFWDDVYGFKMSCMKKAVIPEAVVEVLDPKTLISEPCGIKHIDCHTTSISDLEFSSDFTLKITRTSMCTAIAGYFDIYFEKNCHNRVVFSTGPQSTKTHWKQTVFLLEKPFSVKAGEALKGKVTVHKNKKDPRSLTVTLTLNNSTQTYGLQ

In the assay the target is human PRMT3 (Homo sapiens, UniProt O60678). The assay is described as follows: PRMT3 Biochemical Assay (3H-SAM Flashplate, peptide substrate). Conditions: single experiment or average of multiple experiments. The source says:
S-adenosylmethionine (SAM), S-adenosylhomocysteine (SAH), bicine, Tween20, dimethylsulfoxide (DMSO), bovine skin gelatin (BSG), isopropyl-β-D-thiogalactopyranoside (IPTG), and Tris(2-carboxyethyl)phosphine hydrochloride solution (TCEP) were purchased from Sigma-Aldrich at the highest level of purity possible. ^3H-SAM was purchase from American Radiolabeled Chemicals with a specific activity of 80 Ci/mmol. 384-well streptavidin Flashplates were purchased from PerkinElmer.
Peptide containing the classic RMT substrate motif was synthesized with an N-terminal linker-affinity tag motif and a C-terminal amide cap by 21st Century Biochemicals. The peptide was purified by high-performance liquid chromatography (HPLC) to greater than 95% purity and confirmed by liquid chromatography mass spectrometry (LC-MS). The sequence was Biot-Ahx-[…]-amide (SEQ ID NO.:11).
Full-length human PRMT3 (NM_005788.3) isoform 1 transcript clone was amplified from an HEK 293 cDNA library and subcloned into pGEX-KG (GE Life Sciences). The resulting construct encodes an N-terminal GST tag and a thrombin cleavage sequence ([…] […] […] […]) (SEQ ID NO.: 12) fused directly to Cys 2 of PRMT3.
E. coli (BL21(DE3) Gold, Stratagene) made competent by the CaCl2 method were transformed with the PRMT3 construct and ampicillin selection. Protein over-expression was accomplished by growing the PRMT3 expressing E. coli clone and inducing expression with 0.3 mM IPTG at 16° C. The culture was grown for 12 hours, harvested by centrifugation, and stored at −80° C. for purification.
GST-tagged PRMT3 was eluted with 50 mM Tris, 2 mM glutathione, pH 7.1 and 50 mM Tris, 20 mM glutathione, pH 7.1. Pooled fractions were dialysed in 20 mM Tris, 50 mM NaCl, 5% glycerol, 1 mM EDTA, 1 mM DTT, pH7.5 (Buffer B) and applied to a Q Sepharose Fast Flow column. GST-tagged PRMT3 was eluted by 500 mM NaCl in buffer B. Pooled fractions were dialyzed in 25 mM phosphate buffer, 100 mM NaCl, 5% glycerol, 2 mM DTT, pH 6.8 (Buffer C) and loaded on to a ceramic hydroxyapatite column. GST-tagged PRMT3 eluted with 25-400 mM phosphate in buffer C. Protein was concentrated and buffer was exchanged to 20 mM Tris, 150 mM NaCl, 5% glycerol, 5 mM β-mercaptoethanol, pH7.8 by ultrafiltration. The purity of recovered protein was 70%.
General Procedure for PRMT3 Enzyme Assays on Peptide Substrates.
The assays were all performed in a buffer consisting of 20 mM Bicine (pH=7.6), 1 mM TCEP, 0.005% BSG, and 0.002% Tween 20, prepared on the day of use. Compounds in 100% DMSO (1 ul) were spotted into a polypropylene 384-well V-bottom plates (Greiner) using a Platemate Plus outfitted with a 384-channel head (Thermo Scientific). DMSO (1 ul) was added to Columns 11, 12, 23, 24, rows A-H for the maximum signal control and 1 ul of SAH, a known product and inhibitor of PRMT3, was added to columns 11, 12, 23, 24, rows I-P for the minimum signal control. A cocktail (40 ul) containing the PRMT3 enzyme was added by Multidrop Combi (Thermo-Fisher). The compounds were allowed to incubate with PRMT3 for 30 min at room temperature, then a cocktail (10 ul) containing SAM and peptide was added to initiate the reaction (final volume=51 ul). The final concentrations of the components were as follows: PRMT3 was 0.5 nM, ^3H-SAM was 100 nM, non-radiolabeled SAM was 1.8 uM, peptide was 330 nM, SAH in the minimum signal control wells was 1 mM, and the DMSO concentration was 2%. The assays were stopped by the addition of potassium chloride (10 ul) to a final concentration of 100 mM. 50 ul of the reaction in the 384-well polypropylene plate was then transferred to a 384-well Flashplate and the biotinylated peptides were allowed to bind to the streptavidin surface for at least 1 hour before being washed once with 0.1% Tween20 in a Biotek ELx405 plate washer. […]
`COc1ccc(-c2n[nH]cc2CN(C)CCN)cc1Cl` [Compound 125] registered an IC50 of 4.32 µM. In the case of `CN(CCN)Cc1c[nH]nc1-c1ccc(F)c(Cl)c1` [Compound 124], the IC50 stood at 2.22 µM. Take `CN(CCN)Cc1c[nH]nc1-c1cccc(Cl)c1F` [Compound 123]: the IC50 was determined as 3.92 µM. For the molecule `CN(CCN)Cc1n[nH]cc1-c1ccc(Cl)cc1` [Compound 102], the IC50 was 6.16 µM. The value for `CCn1ncc(CN(C)CCNC)c1-c1ccc(F)cc1` [Compound 7] was 26 µM; that for `CN(CCN)Cc1c[nH]nc1-c1cc(Cl)cc(Cl)c1` [Compound 137] was 7.58 µM.

`CN(CCN)Cc1c[nH]nc1-c1ccc(Cl)cc1F` [Compound 132] came in with an IC50 of 3.98 µM. For the molecule `CC(O)c1ccc(-c2n[nH]cc2CN(C)CCN)cc1` (centres unmarked) [Compound 115], half-maximal inhibition (IC50) required 8.32 µM. Consider `Cc1ccc(-c2n[nH]cc2CN(C)CCN)c(F)c1` [Compound 108], for which 9.91 µM corresponded to half-maximal inhibition (IC50). `COc1ccc(-c2n[nH]cc2CN(C)CCN)c(F)c1` [Compound 107]: the IC50 was found to be 8 µM. The value for `Cc1c(F)cccc1-c1n[nH]cc1CN(C)CCN` [Compound 129] was 9.91 µM; that for `CN(CCN)Cc1c[nH]nc1-c1ccc(C(F)(F)F)c(F)c1` [Compound 141] was 3.47 µM. For `COc1cc(-c2n[nH]cc2CN(C)CCN)ccc1F` [Compound 142], the half-inhibitory concentration (IC50) is 4.83 µM. The value for `CN(CCN)Cc1c[nH]nc1-c1ccccc1C#N` [Compound 140] was 5.21 µM; that for `CN(CCN)Cc1c[nH]nc1-c1ccc(C2CC2)cc1` [Compound 116] was 2.78 µM; that for `COCCn1ncc(CN(C)CCN)c1-c1ccc(F)cc1` [Compound 6] was greater than 50 µM. Molecule `CN(CCN)Cc1c[nH]nc1-c1cc(F)cc(Cl)c1` [Compound 121] displayed an IC50 of 2.88 µM.

Consider `COc1cc(Cl)cc(-c2n[nH]cc2CN(C)CCN)c1` [Compound 127], for which the IC50 turned out to be 5.65 µM.

`CC(C)Oc1ccc(-c2n[nH]cc2CN(C)CCN)cc1F` [Compound 97] registered an IC50 of 3.5 µM.

Molecule `Cc1cc(Cl)ccc1-c1n[nH]cc1CN(C)CCN` [Compound 133] showed an IC50 of 4.1 µM. The value for `CN(CCN)Cc1n[nH]cc1-c1ccc(OC(F)(F)F)cc1` [Compound 105] was 9.83 µM; that for `COc1cccc(-c2n[nH]cc2CN(C)CCN)c1` [Compound 130] was 6.46 µM; that for `Cc1cccc(-c2n[nH]cc2CN(C)CCN)c1` [Compound 131] was 3.57 µM. Consider `CN(CCN)Cc1n[nH]cc1-c1ccc(OC2CC2)cc1` [Compound 119], for which the IC50 is 9.6 µM. In turn, `CN(CCN)Cc1c[nH]nc1-c1ccc(C(F)(F)F)c(Cl)c1` [Compound 117] yielded an IC50 of 2.3 µM.

Molecule `Cc1cc(C#N)ccc1-c1n[nH]cc1CN(C)CCN` [Compound 110] had an IC50 of 7.21 µM. The value for `CN(CCN)Cc1c[nH]nc1-c1cccc(Cl)c1` [Compound 122] was 5.01 µM; that for `CN(CCN)Cc1n[nH]cc1-c1ccc(C#N)cc1` [Compound 100] was 7.26 µM. The molecule `CN(CCN)Cc1c[nH]nc1-c1ccc(C2CCOCC2)cc1` [Compound 98] yielded an IC50 of 0.684 µM. The molecule `CCn1cc(CN(C)CCNC)c(-c2ccc(F)cc2)n1` [Compound 8] returned an IC50 greater than 50 µM. The value for `CN(CCN)Cc1c[nH]nc1-c1ccc(OCC(F)(F)F)cc1` [Compound 96] was 3.14 µM. The value for `CC(=O)c1cccc(-c2n[nH]cc2CN(C)CCN)c1` [Compound 112] was 3.68 µM; that for `CN(CCN)Cc1c[nH]nc1-c1cc(F)cc(F)c1` [Compound 111] was 5.39 µM. The value for `CN(CCN)Cc1c[nH]nc1-c1ccc(Cl)c(F)c1` [Compound 118] was 1.04 µM. `CCN(CC)C(=O)c1ccc(-c2n[nH]cc2CN(C)CCN)cc1` [Compound 143] came in with an IC50 of 8.37 µM. In the case of `CN(CCN)Cc1c[nH]nc1-c1ccc(OC2CC2)cc1` [Compound 114], the IC50 amounted to 3.2 µM.

Molecule `COc1ccc(-c2n[nH]cc2CN(C)CCN)cc1F` [Compound 134] gave an IC50 of 5.44 µM. The value for `Cc1ccc(-c2n[nH]cc2CN(C)CCN)cc1Cl` [Compound 126] was 2.55 µM.
